Paper PMC7516017, “Organoids to Study Intestinal Nutrient Transport, Drug Uptake and Metabolism – Update to the Human Model and Expansion of Applications” (Frontiers in Bioengineering and Biotechnology, 2020)
Read-outs that look alike come from different tables or passages of the source.

Key:
[1] = tested on: human organoids derived from different regions of the small intestine; assay: Uptake of radiolabeled glucose with transporter inhibitors; assay type: cell-based; details: 14C-glucose, 5.8mM D-glucose; 1mM inhibitor added 10min prior; intact organoids in matrigel, HEPES-saline buffer pH 7.4, 30 min 37 °C; liquid scintillation; n = 5–6; Figure 2B
Experimental: (§1) Subsequently, medium was changed to CCM for 5 days. […]
(§2) 1.6. Glucose and Fructose transport studies
(§3) Grenoble, France) and transferred in tubes. After repeated (2x) centrifugation (200g, 5min) and […]
Transporter ac tivities were assessed using (non- […]
(§4) from Sigma) and 1mM Rubusoside (VWR, Avantor).
(§5) Intestinal organoids – Transport & Metabolism […]
(§6) addition of fructose. Following incubation, substrate/inhibitor solutions were removed from intact […]
(§7) centrifuged (300g, 10min). For “broken up” organoids, dissociated organoids were centrifuged (300g, 3min) and washed three times with PBS. During these steps, PBS for washing contained glucose and […]
(§8) 3 ml of Bioscint® Scintillation […]
(§9) organoids was quantified using a liquid scintillation counter (PerkinElmer). Residual amounts of all […]
(§10) in dissolved organoids derived from the ileum. […]
(§11) Calculations and imaging data […]
(§12) intestinal Wt organoids or in human duodenal organoids.

human duodenal organoids [2] = assay: Uptake of radiolabeled fructose with inhibitors/competitor; assay type: cell-based; details: 14C-fructose, 2.1mM D-fructose; 1mM Phloretin or Rubusoside or 2.1mM D-glucose as competitor; inhibitors added 30min prior; dissolved (broken up) organoids, 45 min 37 °C, pH 7.4; liquid scintillation; n = 5–6
Experimental: as §1, §2, §3
indicated substrate/inhibitor for 45 min at 37 °C. Transporter ac tivities were assessed using (non- […]
as §4, §5, §6, §7, §8, §9, §10, §11, §12

[3] = humans; ref Becker et al., 2015; cited from earlier work
Source text: (§13) As mentioned before, peptide transporters also play a role in drug uptake, including peptidomimetics. […] For example, peptidomimetics have been designed for cancer therapy, e.g., to induce apoptosis ([Walensky et al., 2004]), sensitize cancer cells to chemotherapeu ...

human duodenal organoids [4] = assay: Live-cell imaging of intracellular acidification (BCECF-AM), human organoids; assay type: cell-based; details: 40µM CCCP; for intracellular acidification: BCECF-AM 1μM, ratio F(λex490nm)/F(λex450nm), 50mM Gly-Sar, 50mM Gly-Gly, 5mM Cefadroxil, 50mM glucose, 50mM fructose as negative controls, minimum 6 experiments, representative courses
Experimental: (§14) 1.7. Peptide and drug transport studies
For peptide and drug transport studies, human organoids were cultivated for 7-9 days after passaging. […]
(§15) 1.8. Imaging of intracellular acidification
For live-cell imaging of intracellular acidification, organoids were incubated with 1μM BCECF-AM (Life Technologies) in HEPES-saline buffer containing 0.01% pluronic F127, 375μM eserine and 2mM […]
substances used were: 50mM Gly-Sar, 50mM Gly-Gly, 5mM Cefadroxil, 40µM CCCP (Sigma), 100µM Amilorid, and 50µM S1611 (Sanofi Aventis). Image series were captured using a Leica […]
and the fluorescence ratio F(λex490nm)/ F(λex450nm) was calculated. Calculations and imaging data analyses were performed using the Leica Application Suite Advanced Fluorescence software. All imaging experiments were performed minimum 6 times and representative time courses are depicted in the manuscript. Imaging of intracellular acidification was performed as indicated in murine small intestinal Wt organoids or in human duodenal organoids.

Pept1 [5] = target: T1, Pept1 (Mus musculus, UniProt Q9JIP7); assay: Competition assay using radiolabeled Gly-Sar, murine small intestinal organoids (wild type and Pept1 knockout); assay type: in vitro ADME; details: 13mM cyclic hexapeptide (solubilized in DMSO) versus 5mM Gly-Sar (14C tracer 1mM); organoids from wild type and Pept1-deficient mice; HEPES-saline buffer pH 6.5, 37 °C; liquid scintillation; n = 5–6; Figure 2G
T1 construct: endogenous in cells; host or cells: murine small intestinal organoids (C57BL/6 wild type; Pept1-/- organoids as control)
T1 sequence (Q9JIP7 1-709): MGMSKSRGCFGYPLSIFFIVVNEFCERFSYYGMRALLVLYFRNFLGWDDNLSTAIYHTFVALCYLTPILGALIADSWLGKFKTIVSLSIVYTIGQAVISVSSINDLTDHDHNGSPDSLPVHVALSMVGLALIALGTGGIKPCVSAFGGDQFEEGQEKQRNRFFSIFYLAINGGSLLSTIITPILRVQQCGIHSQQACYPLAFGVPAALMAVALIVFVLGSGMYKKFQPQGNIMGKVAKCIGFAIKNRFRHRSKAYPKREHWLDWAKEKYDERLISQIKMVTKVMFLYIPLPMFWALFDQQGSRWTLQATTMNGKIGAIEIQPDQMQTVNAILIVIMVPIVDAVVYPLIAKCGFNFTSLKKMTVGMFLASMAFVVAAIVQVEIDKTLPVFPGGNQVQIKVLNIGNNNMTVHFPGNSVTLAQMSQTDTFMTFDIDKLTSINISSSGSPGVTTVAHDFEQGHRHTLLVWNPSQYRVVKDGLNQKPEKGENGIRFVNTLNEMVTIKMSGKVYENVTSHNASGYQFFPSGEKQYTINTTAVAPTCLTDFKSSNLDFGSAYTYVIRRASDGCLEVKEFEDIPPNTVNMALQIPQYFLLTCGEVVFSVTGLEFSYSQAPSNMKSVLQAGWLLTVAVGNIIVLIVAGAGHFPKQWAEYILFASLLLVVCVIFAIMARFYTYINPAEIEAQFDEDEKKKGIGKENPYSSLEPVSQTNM
Experimental: as §5, §6, §7, §8, §9
in dissolved organoids derived from the ileum.
as §14
The protocol for peptide and
(American Radiolabeled Chemicals). Final substrate concentrations used were: 5mM Gly-Sar […]
Weinmüller and Horst Kessler, and solubilized in DMSO. Peptide transporter studies were performed […]
as §15
(§16) 100µM Amilorid, and 50µM S1611 (Sanofi Aventis). Image series were captured using a Leica […]
as §11, §12

PEPT1 [6] = target: T2, PEPT1 (Homo sapiens, UniProt P46059); assay: Competition assay using radiolabeled Gly-Sar, human duodenal organoids; details: HEPES-saline buffer pH 6.5, 37 °C, liquid scintillation, n = 5–6
T2 sequence (P46059 1-708): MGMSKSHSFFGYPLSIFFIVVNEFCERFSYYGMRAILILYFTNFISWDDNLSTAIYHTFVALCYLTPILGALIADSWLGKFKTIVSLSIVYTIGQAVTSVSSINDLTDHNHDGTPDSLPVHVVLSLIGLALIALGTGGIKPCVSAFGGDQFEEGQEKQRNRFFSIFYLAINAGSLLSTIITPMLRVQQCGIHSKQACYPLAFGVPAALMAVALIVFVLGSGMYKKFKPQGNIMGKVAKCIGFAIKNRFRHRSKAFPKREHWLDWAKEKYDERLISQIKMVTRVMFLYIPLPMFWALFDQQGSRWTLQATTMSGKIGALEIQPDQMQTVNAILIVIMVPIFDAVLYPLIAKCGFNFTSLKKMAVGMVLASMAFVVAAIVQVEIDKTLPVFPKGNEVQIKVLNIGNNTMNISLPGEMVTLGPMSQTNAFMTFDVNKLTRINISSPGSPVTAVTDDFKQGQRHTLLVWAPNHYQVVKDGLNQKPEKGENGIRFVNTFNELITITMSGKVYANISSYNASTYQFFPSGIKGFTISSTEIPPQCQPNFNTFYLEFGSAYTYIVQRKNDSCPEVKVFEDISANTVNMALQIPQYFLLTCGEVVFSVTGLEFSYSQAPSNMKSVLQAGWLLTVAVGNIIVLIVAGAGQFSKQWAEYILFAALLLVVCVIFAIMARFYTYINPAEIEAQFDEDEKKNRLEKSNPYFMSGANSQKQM
Experimental: Intestinal organoids – Transport & Metabolism fructose uptake assay. Inhibitors were added 10min prior to addition of glucose and 30min prior to addition of fructose. Following incubation, substrate/inhibitor solutions were removed from intact organoids embedded in matrigel and matrigel droplets were washed three times with PBS.
Subsequently, matrigel was dissolved by addition of cold PBS and organoids were resuspended and centrifuged (300g, 10min). For “broken up” organoids, dissociated organoids were centrifuged (300g, 3min) and washed three times with PBS. During these steps, PBS for washing contained glucose and fructose, respectively, to avoid excessive transport of substrates out of the cells. Organoid pellets were resuspended in a lysis buffer containing 150mM NaCl, 50 mM Tris-HCl, 1% Igepal CA-630, 0.5% DCA and a protease inhibitor mix, and incubated for 20min on ice. 3 ml of Bioscint® Scintillation solution (National Diagnostics) were added to the cell lysate and radiolabeled substrate taken up by organoids was quantified using a liquid scintillation counter (PerkinElmer). […]
1.7. […]
Transport activity was assessed by competitive inhibition of the uptake of radiolabeled dipeptide glycyl-sarcosin (Gly-Sar), a hydrolysis-resistant model substrate of Pept1. […]
were assessed using (non-labeled) substrates (Gly-Sar) and 14C-radiolabeled substrate tracers (American Radiolabeled Chemicals). […]

Caco-2 = details: cited from earlier work
Source text: as §13

[7] = tested on: sodium-proton exchangers (NHEs); assay: Live-cell imaging of intracellular pH after Gly-Sar with NHE inhibitors; assay type: cell-based, mouse; details: BCECF-AM, murine small intestinal organoids, 50mM Gly-Sar, 100µM Amilorid or 50µM S1611
Experimental: as §5, §6
centrifuged (300g, 10min). For “broken up” organoids, dissociated organoids were centrifuged (300g, 3min) and washed three times with PBS. […]
as §15, §16, §11, §12

Compound: O=C(CCc1ccc(O)cc1)c1c(O)cc(O)cc1O [phloretin]
- effect on glucose uptake [1]: blunted glucose uptake, which was more pronounced
- effect on fructose transport (human duodenal organoids [2]): diminished

Compound: Cilengitide
- half-life of excretion [3]: 4 h
- metabolic stability [3]: completely stable

Compound: glycyl-sarcosin [Gly-Sar]
- intracellular acidification (human duodenal organoids [4]): intracellular acidification was demonstrated

Compound: C[C@@H]1NC(=O)[C@H](C)NC(=O)[C@@H](C)N(C)C(=O)[C@H](C)N(C)C(=O)[C@H](C)NC(=O)[C@H](C)NC1=O [P3]
- peptide transporter-mediated uptake judged by competitive inhibition of radiolabeled Gly-Sar uptake (Pept1 [5]): no signs of peptide transporter-mediated uptake
- competitive inhibition of radiolabeled Gly-Sar uptake (PEPT1 [6]; 13mM cyclic hexapeptide (solubilized in DMSO) versus 5mM Gly-Sar (14C tracer 1mM), human duodenal organoids, Figure 2H): significantly reduce radiolabeled Gly-Sar uptake
- permeability in Caco-2 assay (Caco-2; library of N-methylated alanine peptides, ref Ovadia et al., 2011): highly permeable

Compound: C[C@@H]1NC(=O)[C@H](CC(=O)O)NC(=O)CNC(=O)[C@H](CCCNC(=N)N)NC(=O)[C@@H](C)N(C)C(=O)[C@H](C)N(C)C1=O [P2]
- peptide transporter-mediated uptake judged by competitive inhibition of radiolabeled Gly-Sar uptake (Pept1 [5]): actively transported independently of Pept1
- permeability in Caco-2 assay (Caco-2; ref Weinmuller et al., 2017): lacked permeability

Compound: CC1=C(C(=O)O)N2C(=O)[C@@H](NC(=O)[C@H](N)c3ccc(O)cc3)[C@H]2SC1 [cefadroxil]
- intracellular acidification (human duodenal organoids [4]): intracellular acidification was demonstrated

Compound: carbonyl cyanide m-chlorophenyl hydrazine [CCCP]
- intracellular acidification (human duodenal organoids [4]): intracellular acidification was demonstrated
- intracellular pH on stimulation subsequent to Gly-Sar, Gly-Gly and cefadroxil (human duodenal organoids [4]; BCECF-AM, human duodenal organoids, Supplementary Figure 3A): additional decline in intracellular pH

Compound: OC[C@H]1OC(O)[C@H](O)[C@@H](O)[C@@H]1O (stereo partly drawn) [glucose]
- effect on fructose transport (human duodenal organoids [2]): diminished
- intracellular acidification (human duodenal organoids [4]): neither glucose nor fructose (used as negative controls) led to an intracellular acidification

Compound: N=C(N)NC(=O)c1nc(Cl)c(N)nc1N [Amiloride]
- recovery of intracellular pH following exposure to Gly-Sar [7]: prevented the recovery of intracellular pH to basal levels
- course of intracellular pH in the observed time span after Gly-Sar ([7]; Figures 3G,H): continuous influx of protons

Compound: O=C(CO)[C@@H](O)[C@H](O)[C@H](O)CO [fructose, D-fructose]
- intracellular acidification (human duodenal organoids [4]): neither glucose nor fructose (used as negative controls) led to an intracellular acidification

Compound: glycyl-glycine [Gly-Gly]
- competitive inhibition of radiolabeled Gly-Sar uptake (PEPT1 [6]; 5mM Gly-Gly versus 5mM Gly-Sar (14C tracer 1mM), intact and broken up human duodenal organoids): significant reduction of Gly-Sar uptake in both approaches
- intracellular acidification (human duodenal organoids [4]): intracellular acidification was demonstrated

Compound: O=C(CCc1ccc(O)cc1)c1c(O)cc(O)cc1O[C@@H]1O[C@H](CO)[C@@H](O)[C@H](O)[C@H]1O [phloridzin]
- effect on glucose uptake [1]: blunted glucose uptake
